Results on three compounds are retold here after US9598441B2, “Therapeutic compounds and methods” (Wayne State University, priority 2011, dated 2017).

Structures are written as SMILES.

For assay [1], the system named is MDA-MB-468 wild-type, vector and CARP-1 (Δ896-978) expressing cells. Nature of the assay: MTT assay in stable HBC sublines expressing vector or CARP-1 (Δ896-978). The format is cell-based, human. The note with it: for growth of wild-type, vector and CARP-1 (Δ896-978) expressing cells (MTT): 0.1 and 1.0 μg/ml ADR, or 5 and 10 μM CFM-4; for sensitivity of CARP-1 (Δ896-978) expressing cells to inhibition: versus wild-type or vector cells. The source says: Routine maintenance and culture of MDA-MB-231, MDA-MB-468, SKBR-3 (all lack ER and have mutant p53), MCF-7, T47D (both have ER and wild-type p53) HBC cells (Runnebaum, I. B., Nagarajan, M., Bowman, M., Soto, D., and Sukumar, S. (1991). Proc. Natl. Acad. Sci. USA 88, 10657-10661), human prostate cancer PC3 and LnCAP cells, HCT-116 human colon cancer, human pancreatic cancer PANC-1 and BxPC-3, Burkett lymphoma Raji, diffuse large B-cell lymphoma WSU-DLCL2, follicular lymphoma WSU-FSCCL cells, cervical cancer HeLa, human mesothelial Met5a, human pleural malignant mesothelioma (MPM), murine MPM AB12 cells (Wang, Y., Rishi, A. K., Puliyappadamba, V. T., Sharma, S., Yang, H., Tarca, A., Dou, Q. P., Lonardo, F., Ruckdeschel, J. C., Pass, H. I., Wali, A. (2010) Can. Chemother. Pharmacol. 66, 455-466), and the green monkey kidney Cos-7 cells was carried out essentially as described (Rishi, A. K., Zhang, L., Boyanapalli, M., Wali, A., Mohammad, R. M., Yu, Y., Fontana, J. A., Hatfield, J. S., Dawson, M. I., Majumdar, A. P. N., and Reichert, U. (2003) J. Biol. Chem. 278, 33422-33435, Rishi, A. K., Zhang, L., Yu, Y., Jiang, Y., Nautiyal, J., Wali, A., Fontana, J. A., Levi, E., and Majumdar, A. P. N. (2006) J. Biol. Chem. 281(19), 13188-98, Zhang, L., Levi, E., Majumder, P., Yu, Y., Aboukameel, A., Du, J., Xu, H., Mohammad, R. M., Hatfield, J. S., Wali, A., Adsay, V., Majumdar, A. P. N., and Rishi, A. K. (2007) Mol. Cancer Ther. 6(5), 1661-1672, Levi, L., Zhang, L., Aboukameel, A., Rishi, S., Mohammad, R. M., Polin, L., Hatfield, J. S., and Rishi, A. K. Can. Chemother. Pharmacol. (in Press). The immortalized, non-tumorigenic human breast epithelial MCF-10A have been described before (Miller, F. R. (2000). J. Mammary Gland Biol. Neoplasia 5, 379-391). MCF-7 cells that are resistant to adriamycin (MCF-7/Adr/Vp) or tamoxifen (MCF-7-TAM) were obtained from Drs. Douglas Ross (University of Maryland Baltimore) and Kaladhar Reddy (Pathology Department, Wayne State University, Detroit, Mich.), respectively, and were maintained essentially following methods described before (Doyle, L. A., Yang, W., Abruzzo, L. V., Krogmann, T., Gao, Y., Rishi, A. K., and Ross, D. D. (1998). Proc. Natl. Acad. Sci. (USA), 95, 15665-15670, Nabha, S., Glaros, S., Hong, M., Lykkesfeidt, A. E., Schiff, R., Osborne, C. K., Reddy, K. B. (2005). Oncogene, 24, 3166-3176). The stable sublines were generated by transfecting the MDA-MB-468 cells with the vector or the recombinant pcDNA3/CARP-1 (Δ896-978)-myc-His plasmid followed by selection in the presence of 800 μg/ml neomycin using described methods (Rishi, A. K., Zhang, L., Boyanapalli, M., Wali, A., Mohammad, R M, Yu, Y., Fontana, J. A., Hatfield, J. S., Dawson, M. I., Majumdar, A. P. N., and Reichert, U. (2003) J. Biol. Chem. 278, 33422-33435).
Logarithmically growing cells were either untreated or treated with different agents for various time periods. The cells were lysed to prepare protein extracts. IP was carried out by incubating approximately 1 mg of the protein lysate with appropriate antibodies, and the immunoprecipitates or cell lysates were then electrophoresed on 9-12% SDS-polyacrylamide gels, and transferred to nitrocellulose membranes. The membranes were subsequently probed with various antibodies to determine expression/presence of the corresponding proteins. The cell growth inhibition was assessed by using MTT assay. […]
In general terms: Tetrazolium assays rely on reduction of a dye to a coloured formazan, in cell work by metabolically active cells.

For assay [2], the system named is HBC, colon, prostate, pancreatic cancer, MPM and lymphoma cells. Nature of the assay: MTT cell viability assay, cancer cells. The class given is cell-based, human. The procedure: Logarithmically growing cells were either untreated or treated with different agents for various time periods. The cells were lysed to prepare protein extracts. IP was carried out by incubating approximately 1 mg of the protein lysate with appropriate antibodies, and the immunoprecipitates or cell lysates were then electrophoresed on 9-12% SDS-polyacrylamide gels, and transferred to nitrocellulose membranes. The membranes were subsequently probed with various antibodies to determine expression/presence of the corresponding proteins. The cell growth inhibition was assessed by using MTT assay. Briefly, MTT (3-[4,5-Dimethylthiazol-2-yl]-2,5diphenyltetrazolium bromide) was dissolved in sterile 1×PBS to prepare a stock solution of 5 mg/ml. The solution was subsequently filtered through 0.2 μm filter and stored at 2-8° C. 4−5×10^2 cells were seeded in 96-well plates. After 72 h incubation with or without different agents, MTT stock solution was added to each culture being assayed to equal one tenth the original culture volume, followed by incubation of cells at 37° C. for another 2 h. At the end of the incubation, the media was removed and cells were treated with 100-200 μl of DMSO to solubilize the dye. The assessment of the live cells was derived by measuring the absorbance of the converted dye at wavelength of 570 nm.
To test whether CFMs that interfere with CARP-1 binding with APC-2 modulate cell growth, HBC, colon, prostate, pancreatic cancer, MPM and lymphoma cells, as well as the immortalized, mammary epithelial MCF-10A cells were utilized. The cells were either treated with vehicle (DMSO) or various doses of the respective compound for a period of 72 h, and percent of live/viable cells for each compound was determined relative to the untreated controls as described in Methods.

As to `COc1cccc2c1C(=O)c1c(O)c3c(c(O)c1C2=O)C[C@@](O)(C(=O)CO)C[C@@H]3O[C@H]1C[C@H](N)[C@H](O)[C@H](C)O1` [ADR, adriamycin, reference compound], in assay [1], the “growth of wild-type, vector and CARP-1 (Δ896-978) expressing cells (MTT)” value is listed as “suppressed growth”; the “sensitivity of CARP-1 (Δ896-978) expressing cells to inhibition” value was “generally more sensitive”.
Regarding `Cc1cc(Br)cc2c1NC(=O)/C2=C1\SC(=S)NC1=O` [CFM-1, (Z)-5-(5-bromo-7-methyl-2-oxoindolin-3-ylidene)-2-thioxothiazolidin-4-one], in assay [2] (HBC cells, 72 h), the “HBC cell growth / viability (MTT)” value is given as “suppressed viabilities”. For the same compound, the “cell growth of MPM cells (MTT)” value in assay [2] (MPM cells, 72 h) was “elicited activity towards select MPM cells”.
Take `O=C1N(Cc2ccccc2Cl)c2ccccc2C12NN=C(c1ccccc1)S2` (stereo not drawn) [CFM-4, 1-(2-chlorobenzyl)-5′-phenyl-3′H-spiro[indoline-3,2′-[1,3,4]thiadiazol]-2-one]: the “sensitivity of HBC cells compared with similar dose of CFM-1 and 5 (MTT)” value in assay [2] (HBC cells, 20 μM dose) is listed as “relative increased sensitivity”. Further, the “HBC cell growth / viability (MTT)” value in assay [2] (HBC cells, 72 h) is on record as “suppressed viabilities”. Also, the “loss of viability of CARP-1 (Δ896-978) cells versus wild-type or vector-transfected cells” value in assay [1] (10 μM dose) is “greater loss of viability”. In assay [1], the “growth of wild-type, vector and CARP-1 (Δ896-978) expressing cells (MTT)” value is “suppressed growth”; the “sensitivity of CARP-1 (Δ896-978) expressing cells to inhibition” value is on record as “generally more sensitive”.
